Results on 6 molecules are retold here after patent US5776461A, “Cosmetic compositions containing phytovitamin D” (Chesebrough-Pond's USA Co., Division of Conopco, Inc., priority 1996, dated 1998).

“Also recorded” adds a separate entry of the source.

Data set [1] concerns HL-60 cells. Description: HL-60 cell differentiation assay (nonspecific esterase expression). Particulars: for HL-60 differentiation activity (in words): pure vitamin D compounds; for % differentiation: 48 hrs. The format is cell-based. The source says:
This test can be utilized to assess the vitamin D content of plant extracts after converting the glycosides and other hydroxylated forms of vitamin D to 1,25-(OH)2 D. One can achieve this by following the procedure: [drawing 2] Glycosidases cleave vitamin D glycosides to the aglycone form (free steroid form). […] This can be again extracted into chloroform phase and redissolved in ethanol and tested in the HL-60 cell differentiation assay. Using this procedure, the glycosylated and nonglycosylated forms of 25-D and 1,25-(OH)2 D of both vitamin D2 and D3 can be quantitated in HL-60 cell differentiation assay.
a. Plant Extract preparation: The plant extracts are prepared by extracting the dry plant powders with ethanol or other solvents by stirring 1 part of the plant material with 5 to 10 parts of the solvent for 3 to 18 hours at room temperature. Suitable solvents are described hereinbelow. The extracts are clarified by filtration, then dried by evaporation to obtain a dried plant extract.
b. Treatment of Dried Plant Extracts with Glycosidase: 50 mg of dried plant extract are resuspended in 4 ml citrate-phosphate buffer and incubated overnight with a glycosidase enzyme (e.g., from an almond meal extract). After incubation, the mixture is extracted with chloroform. The chloroform phase containing the nonglycosylated vitamin D compounds is dried and resuspended in ethanol at a concentration of 5 mg/ml of ethanol.
c. Hydroxylase Treatment of product of step (b) (Non-Glycosylated Vitamin D Compounds): Human keratinocytes in culture express high amounts of 25(OH) vitamin D 1-a hydroxylase activity. For converting into the 1,25-(OH)2 D, which is detected by the product of step (b) in the HL-60 assay, is treated with a keratinocyte homogenate for 1 hour at 37° C. (50 μl of the product of step b with 1 ml of cell homogenate containing 100-200 μg cell protein). After the treatment, the mixture is extracted with chloroform:methanol (1:1), the chloroform phase is dried down, resuspended in ethanol and used in the HL-60 cell differentiation assay.
d. HL-60 Cell Differentiation Assay: The differentiation of HL-60 cells can be assessed by a simple cytochemical method for the expression of non-specific esterase activity (expressed only in the differentiated monocyte/macrophage phenotype) using α-naphthyl acetate as a substrate. HL-60 cell line is obtained (e.g. from American Type Culture Collection (ATCC)) and cultures are established in the laboratory (e.g. using RPMI medium containing 20% fetal calf serum (FCS)). For incubation with the different plant extracts, cells are washed in phosphate buffered saline (PBS), then resuspended in RPMI medium containing 10% FCS and plated at a density of 750,000 cells per 1 ml in 6 well plates. The plates are then treated with either standard 1,25-(OH)2 D (0.1 to 100 nM) or the different plant extracts in ethanol, using a maximum ethanol concentration of 5 μl/ml of medium. The cells are treated for 48 hrs before processing for the esterase cytochemical assay.
Expression of nonspecific esterase in HL-60 cells is determined after mounting the cells onto slides using Cytospin. The slides are then fixed in citrateacetone-methanol for 1 min at room temperature, washed in deionized water and air dried for 20 min. The substrate solution for esterase is prepared according to the procedure provided by Sigma by adding 1 capsule of Fast Blue RR salt to 50 ml Trizma buffer (pH 7.6)and 2 ml of α-naphthyl acetate solution. The slides are incubated at 37° C. in this solution for 30 min in the dark. The slides are washed for 3 min in water, counterstained using Mayer's Hematoxylin solution air dried and viewed under microscope. The number of cells showing dark brown precipitate indicating esterase activity is counted and calculated as a percent of the total number of cells in 6 different areas of the slide (approximately 500 total cells).

For data set [2], the system named is adult human keratinocytes. Description: cornified envelope formation of adult human keratinocytes. The format is cell-based. The following applies: Table 6; no almond meal extract, 48 hrs; 1,25-OH2 D at 1 nM.
Experimental: In this method, keratinocytes were treated with the various extracts dissolved in ethanol (as described for the HL-60 assay) for 48 hrs in the presence of 5 uCi of 35S methionine included in the medium. The labelled methionine gets incorporated into the newly synthesized proteins during this 48 hr. period, including the proteins required for the formation of cornified envelopes. […] This treatment allows Ca to flow into the cells, maximally activate the enzyme transglutaminase and crosslinks all the labelled cornified envelope precursor proteins to form labelled cornified envelopes. The cells were then dissolved in 2%SDS/40 mM DTT, and the amount of insoluble cornified envelopes was quantitated by scintillation counting after separating from the soluble proteins by filtration on 0.2 micron filters.
Data set [3] deals with vitamin D binding protein. Particulars: 25-D = 100%; cited from earlier work.
Data set [4] has as its system keratinocyte. The following applies: cited from earlier work.
In data set [5] the test system is Cultured Human Keratinocytes. The following applies: cited from earlier work.

As for `C=C1/C(=C\C=C2/CCC[C@]3(C)[C@@H]([C@H](C)CCC(O)C(C)(C)O)CC[C@@H]23)C[C@@H](O)CC1O` (stereo partly drawn) [1,24,25-D(OH)3], the “HL-60 differentiation activity (in words)” value in data set [1] is “inactive at all concentrations”.

Take `C=C1/C(=C\C=C2/CCC[C@]3(C)[C@@H]([C@H](C)CCCC(C)(C)O)CC[C@@H]23)C[C@@H](O)C[C@@H]1O` [1,25-(OH)2 D, 1,25-Dihydroxyvitamin D3]: the “cornified envelope formation, no hydrolysis” value in data set [2] is 207.6 % of control. Also, the “% differentiation” value in data set [1] (0.1 nM) stood at 5%; in data set [1] (1 nM), 50%; in data set [1] (10 nM), 90%; in data set [1] (100 nM) it was 95%. For the same molecule, the “lowest concentration at which differentiation ability could be detected” value in data set [1] (HL-60, 48 hrs) came out at 0.1 nM. Besides, the EC50 in data set [1] (HL-60, 48 hrs, read-out: concentration for half maximal differentiation) came to 1 nM. In addition, in data set [1], the “HL-60 differentiation activity (in words)” value was “induces HL-60 cell differentiation in a dose-dependent manner; also recorded: promoted”. In data set [3], the “detection (cross-reactivity) in vitamin D binding assay” value (“detection (cross-reactivity)” for short) is reported as 4%.

Consider `C=C1CC[C@H](O)C/C1=C/C=C1\CCC[C@]2(C)[C@@H]([C@H](C)CCC(O)C(C)(C)O)CC[C@@H]12` (stereo partly drawn) [24,25(OH)2 D], for which the “detection (cross-reactivity)” value in data set [3] is on record as 70%.

For `C=C1CC[C@H](O)C/C1=C/C=C1\CCC[C@]2(C)[C@@H]([C@H](C)CCCC(C)(C)O)CC[C@@H]12` [25-D, 25-hydroxycholecalciferol], the “% differentiation” value in data set [1] (1 nM), in data set [1] (10 nM) and in data set [1] (100 nM) was 0% each time. The “HL-60 differentiation activity (in words)” value in data set [1] is “inactive at all concentrations”; in data set [1] (listed as 25D), “do not induce its differentiation”. For the same molecule, the “detection (cross-reactivity)” value in data set [3] is on record as 100%.

Take `C=C1CC[C@H](O)C/C1=C/C=C1\CCC[C@]2(C)[C@@H]([C@H](C)CCCC(C)C)CC[C@@H]12` [Vitamin D3, cholecalciferol]: the “% differentiation” value in data set [1] (0.1 nM), in data set [1] (1 nM), in data set [1] (10 nM) and in data set [1] (100 nM) was 0% in each case. The “keratinocyte prodifferentiating activity (in words)” value in data set [4] (applied topically to skin) is “neither has keratinocyte prodifferentiating activity”. Besides, in data set [5], the “conversion in skin to 25-D (in words)” value was “nor is it converted in the skin to 25-D”.

For Vitamin D, the “HL-60 differentiation activity (in words)” value is “inactive at all concentrations” in data set [1] (listed as non-hydroxylated vitamin D) and “do not induce its differentiation” in data set [1] (listed as nonhydroxylated vitamin D). In addition, the “biological activity (in words)” value in data set [4] (vitamin D per se) was “biologically inactive”. Also, the “detection (cross-reactivity)” value in data set [3] is reported as 0.4%.
